Tests used:
[1] = target: T1, Recombinant STAT6 protein (STAT6 (W123-T658)) (Homo sapiens, UniProt P42226); assay: STAT6 Fluorescence Polarization (FP) Assay; assay type: binding; conditions: STAT6 (W123-T658) 250 nM, probe 5-FAM-Ap[…]-NH2 2 nM, 45-minute incubation; read-out: STAT6 (FP assay IC50 class)
T1 construct: Recombinant STAT6 protein (STAT6 (W123-T658))
T1 sequence (P42226 123-658): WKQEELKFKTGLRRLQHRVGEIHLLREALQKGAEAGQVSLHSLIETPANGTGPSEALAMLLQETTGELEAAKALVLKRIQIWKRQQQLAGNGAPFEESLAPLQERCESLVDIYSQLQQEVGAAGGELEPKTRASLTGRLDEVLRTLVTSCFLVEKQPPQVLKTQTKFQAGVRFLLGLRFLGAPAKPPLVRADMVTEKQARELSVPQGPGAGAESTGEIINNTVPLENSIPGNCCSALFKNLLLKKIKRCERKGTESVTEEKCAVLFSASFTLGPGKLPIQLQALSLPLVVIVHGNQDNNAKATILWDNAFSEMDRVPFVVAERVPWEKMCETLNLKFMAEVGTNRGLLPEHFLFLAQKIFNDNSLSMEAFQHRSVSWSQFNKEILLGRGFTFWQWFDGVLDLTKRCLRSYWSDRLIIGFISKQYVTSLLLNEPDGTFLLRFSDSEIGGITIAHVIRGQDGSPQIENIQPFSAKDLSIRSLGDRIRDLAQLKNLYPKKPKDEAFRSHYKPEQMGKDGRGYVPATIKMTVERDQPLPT
Method in brief: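 Probe displacement format: serially diluted compounds incubated 45 min at room temperature with 2 nM fluorescent phosphopeptide and 250 nM STAT6 (W123-T658) in pH 7.4 HEPES buffer, 1% DMSO final. Polarization signal plotted against log concentration, IC50 fitted by nonlinear regression.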

[2] = target: T2, Recombinant STAT3 protein (STAT3 (G127-I722)) (Homo sapiens, UniProt P40763); assay: STAT3 Fluorescence Polarization (FP) Assay; assay type: binding; conditions: STAT3 (G127-I722) 25 nM, probe 5-FAM-GpYLPQTV-NH2 2 nM, 45-minute incubation; read-out: STAT3 (FP assay IC50 class)
T2 construct: Recombinant STAT3 protein (STAT3 (G127-I722))
Method in brief: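 Displacement of a fluorescent phosphotyrosine peptide (5-FAM-GpYLPQTV-NH2, 2 nM) from 25 nM recombinant STAT3 G127-I722 was monitored by FP after 45 min at room temperature.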

T2 sequence (P40763 127-722): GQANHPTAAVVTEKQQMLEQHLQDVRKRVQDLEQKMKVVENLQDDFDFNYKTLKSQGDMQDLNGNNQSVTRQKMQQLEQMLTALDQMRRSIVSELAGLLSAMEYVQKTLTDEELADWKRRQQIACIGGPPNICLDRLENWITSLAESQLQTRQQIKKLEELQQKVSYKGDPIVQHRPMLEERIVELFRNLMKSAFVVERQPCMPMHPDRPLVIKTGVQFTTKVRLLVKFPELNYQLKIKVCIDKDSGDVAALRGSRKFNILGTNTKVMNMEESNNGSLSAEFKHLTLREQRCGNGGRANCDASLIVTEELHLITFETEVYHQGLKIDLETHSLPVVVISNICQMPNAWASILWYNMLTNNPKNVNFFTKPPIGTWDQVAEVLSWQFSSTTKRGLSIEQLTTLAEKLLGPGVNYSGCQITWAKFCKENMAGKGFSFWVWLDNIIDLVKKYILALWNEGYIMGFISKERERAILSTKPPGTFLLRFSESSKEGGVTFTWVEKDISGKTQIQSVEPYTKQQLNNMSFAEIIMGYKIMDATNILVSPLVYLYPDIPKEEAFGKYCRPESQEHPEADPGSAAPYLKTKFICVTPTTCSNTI

Row | Compound | IC50 [1] [µM] | IC50 [2] [nM]
1 | COc1c(C2CN(C(=O)[C@@H]3CC[C@@H]4CCC[C@H](NC(=O)c5cc6cc(C(F)P(=O)(O)O)ccc6s5)C(=O)N43)C2)ccnc1F (stereo partly drawn) [Compound 925, (fluoro(2-(((3S,6S,9aS)-3-(3-(2-fluoro-3-methoxypyridin-4-yl)azetidine-1-carbonyl)-5-oxooctahydro-1H-pyrrolo[1,2-a]azepin-6-yl)carbamoyl)benzo [b]thiophen-5-yl)methyl) phosphonic acid] | 3 to 30 | < 100
2 | COC[C@@H]1CCN1c1ccncc1C1CN(C(=O)[C@@H]2CC[C@@H]3CCC[C@H](NC(=O)c4cc5cc([C@@H](F)P(=O)(O)O)ccc5s4)C(=O)N32)C1 [Compound 926, ((S)-fluoro(2-(((3S,6S,9aS)-3-(3-(4-((S)-2-(methoxymethyl)azetidin-1-yl)pyridin-3-yl)azetidine-1-carbonyl)-5-oxooctahydro-1H-pyrrolo[1,2-a]azepin-6-yl)carbamoyl)benzo [b]thiophen-5-yl)methyl) phosphonic acid] | 3 to 30 | < 100
3 | O=C(N[C@H]1CCC[C@H]2CC[C@@H](C(=O)N3CC(c4ccnc(O)n4)C3)N2C1=O)c1cc2cc(C(F)P(=O)(O)O)ccc2s1 (stereo partly drawn) [Compound 927, (fluoro(2-(((3S,6S,9aS)-3-(3-(2-hydroxypyrimidin-4-yl)azetidine-1-carbonyl)-5-oxooctahydro-1H-pyrrolo[1,2-a]azepin-6-yl)carbamoyl)benzo [b]thiophen-5-yl)methyl) phosphonic acid] | 3 to 30 | < 100
4 | CCOc1c(F)cncc1C1CN(C(=O)[C@@H]2CC[C@@H]3CCC[C@H](NC(=O)c4cc5cc([C@@H](F)P(=O)(O)O)ccc5s4)C(=O)N32)C1 [Compound 928, ((S)-(2-(((3S,6S,9aS)-3-(3-(4-ethoxy-5-fluoropyridin-3-yl)azetidine-1-carbonyl)-5-oxooctahydro-1H-pyrrolo[1,2-a]azepin-6-yl)carbamoyl)benzo [b]thiophen-5-yl)fluoromethyl) phosphonic acid] | 3 to 30 | 1000 to 10000
5 | N#C[C@H]1[C@H](c2ccccc2)CN(C(=O)[C@@H]2CC[C@@H]3CCCC[C@H](NC(=O)c4cc5cc(CP(=O)(O)O)ccc5s4)C(=O)N32)C12CC2 [Compound 929, ((2-(((3S,6S,10aS)-3-((6R,7S)-7-cyano-6-phenyl-4-azaspiro[2.4]heptane-4-carbonyl)-5-oxodecahydropyrrolo [1,2-a]azocin-6-yl)carbamoyl)benzo [b]thiophen-5-yl)methyl) phosphonic acid] | ≤ 0.3 | 1000 to 10000
6 | CCC[C@@H]1CC[C@H](NC(=O)c2cc3cc([C@H](F)P(=O)(O)O)ccc3s2)C(=O)N2[C@H](CC[C@H]2C(=O)N2CC(c3cnccc3N3CCC3)C2)C1 [Compound 930, ((R)-(2-(((3S,6S,9R,10aR)-3-(3-(4-(azetidin-1-yl)pyridin-3-yl)azetidine-1-carbonyl)-5-oxo-9-propyldecahydro-pyrrolo[1,2-a]azocin-6-yl)carbamoyl)benzo [b]thiophen-5-yl)fluoromethyl) phosphonic acid] | 3 to 30 | 100 to 1000
7 | CC[C@@H]1CC[C@H](NC(=O)c2cc3cc([C@H](F)P(=O)(O)O)ccc3s2)C(=O)N2[C@H](CC[C@H]2C(=O)N2CC(c3cnccc3N3CCC3)C2)C1 [Compound 931, ((R)-(2-(((3S,6S,9R,10aR)-3-(3-(4-(azetidin-1-yl)pyridin-3-yl)azetidine-1-carbonyl)-9-ethyl-5-oxodecahydropyrrolo [1,2-a]azocin-6-yl)carbamoyl)benzo [b]thiophen-5-yl)fluoromethyl) phosphonic acid] | 0.3 to 3 | < 100
8 | COc1c(C2CN(C(=O)[C@@H]3CC[C@@H]4CCC[C@H](NC(=O)c5cc6cc(C(F)P(=O)(O)O)ccc6s5)C(=O)N43)C2)ccnc1C#N (stereo partly drawn) [Compound 932, ((2-(((3S,6S,9aS)-3-(3-(2-cyano-3-methoxypyridin-4-yl)azetidine-1-carbonyl)-5-oxooctahydro-1H-pyrrolo[1,2-a]azepin-6-yl)carbamoyl)benzo [b]thiophen-5-yl)fluoromethyl) phosphonic acid] | 3 to 30 | < 100
9 | COC1CN(c2ccncc2C2CN(C(=O)[C@@H]3CC[C@@H]4C[C@H](C)C[C@H](NC(=O)c5cc6cc(CP(=O)(O)O)ccc6s5)C(=O)N43)C2)C1 [Compound 933, ((2-(((3S,6S,8R,9aR)-3-(3-(4-(3-methoxyazetidin-1-yl)pyridin-3-yl)azetidine-1-carbonyl)-8-methyl-5-oxooctahydro-1H-pyrrolo[1,2-a]azepin-6-yl)carbamoyl)benzo [b]thiophen-5-yl)methyl) phosphonic acid] | 3 to 30 | < 100
10 | CC[C@H]1CC[C@H](NC(=O)c2cc3cc([C@H](F)P(=O)(O)O)ccc3s2)C(=O)N2[C@H](CC[C@H]2C(=O)N2CC(c3cnccc3N3CCC3)C2)C1 [Compound 938, ((R)-(2-(((3S,6S,9S,10aR)-3-(3-(4-(azetidin-1-yl)pyridin-3-yl)azetidine-1-carbonyl)-9-ethyl-5-oxodecahydropyrrolo [1,2-a]azocin-6-yl)carbamoyl)benzo [b]thiophen-5-yl)fluoromethyl) phosphonic acid] | 0.3 to 3 | < 100
11 | CC(C)c1ccncc1C1CN(C(=O)[C@@H]2CC[C@@H]3CCC[C@H](NC(=O)c4cc5cc(C(F)P(=O)(O)O)ccc5s4)C(=O)N32)C1 (stereo partly drawn) [Compound 939, (fluoro(2-(((3S,6S,9aS)-3-(3-(4-isopropylpyridin-3-yl)azetidine-1-carbonyl)-5-oxooctahydro-1H-pyrrolo[1,2-a]azepin-6-yl)carbamoyl)benzo [b]thiophen-5-yl)methyl) phosphonic acid] | 3 to 30 | < 100
12 | CC(NC(=O)[C@@H]1CC[C@@H]2CCCC[C@H](NC(=O)c3cc4cc(C(F)(F)P(=O)(O)O)ccc4s3)C(=O)N21)c1n[nH]c2ncccc12 (stereo partly drawn) [Compound 1107, ((2-(((3S,6S,10aS)-3-((1-(1H-pyrazolo[3,4-b]pyridin-3-yl)ethyl)carbamoyl)-5-oxodecahydropyrrolo[1,2-a]azocin-6-yl)carbamoyl)benzo[b]thiophen-5-yl)difluoromethyl)phosphonic acid] | 0.3 to 3 | 100 to 1000
13 | O=C(N[C@H]1CCCC[C@H]2CC[C@@H](C(=O)NCc3cnc4[nH]ncc4c3)N2C1=O)c1cc2cc(C(F)(F)P(=O)(O)O)ccc2s1 [Compound 1108, ((2-(((3S,6S,10aS)-3-(((1H-pyrazolo[3,4-b]pyridin-5-yl)methyl)carbamoyl)-5-oxodecahydropyrrolo[1,2-a]azocin-6-yl)carbamoyl)benzo[b]thiophen-5-yl)difluoromethyl)phosphonic acid] | 3 to 30 | 100 to 1000
14 | Cc1cc(C#N)ccc1C1CN(C(=O)[C@@H]2CC[C@@H]3CCCC[C@H](NC(=O)c4cc5cc(C(F)(F)P(=O)(O)O)ccc5s4)C(=O)N32)C1 [Compound 1110, ((2-(((3S,6S,10aS)-3-(3-(4-cyano-2-methylphenyl)azetidine-1-carbonyl)-5-oxodecahydropyrrolo[1,2-a]azocin-6-yl)carbamoyl)benzo[b]thiophen-5-yl)difluoromethyl)phosphonic acid] | 0.3 to 3 | < 100
15 | O=C(N[C@H]1CCCC[C@H]2CC[C@@H](C(=O)NCc3cnc4[nH]cnc4c3)N2C1=O)c1cc2cc(C(F)(F)P(=O)(O)O)ccc2s1 [Compound 1112, ((2-(((3S,6S,10aS)-3-(((3H-imidazo[4,5-b]pyridin-6-yl)methyl)carbamoyl)-5-oxodecahydropyrrolo[1,2-a]azocin-6-yl)carbamoyl)benzo[b]thiophen-5-yl)difluoromethyl)phosphonic acid] | 0.3 to 3 | < 100
16 | CC(NC(=O)[C@@H]1CC[C@@H]2CCCC[C@H](NC(=O)c3cc4cc(C(F)(F)P(=O)(O)O)ccc4s3)C(=O)N21)c1c[nH]c2ncccc12 (stereo partly drawn) [Compound 1113, ((2-(((3S,6S,10aS)-3-((1-(1H-pyrrolo[2,3-b]pyridin-3-yl)ethyl)carbamoyl)-5-oxodecahydropyrrolo[1,2-a]azocin-6-yl)carbamoyl)benzo[b]thiophen-5-yl)difluoromethyl)phosphonic acid] | 0.3 to 3 | 100 to 1000
17 | O=C(N[C@H]1CCCC[C@H]2CC[C@@H](C(=O)NCc3cnc4[nH]ccc4c3)N2C1=O)c1cc2cc(C(F)(F)P(=O)(O)O)ccc2s1 [Compound 1114, ((2-(((3S,6S,10aS)-3-(((1H-pyrrolo[2,3-b]pyridin-5-yl)methyl)carbamoyl)-5-oxodecahydropyrrolo[1,2-a]azocin-6-yl)carbamoyl)benzo[b]thiophen-5-yl)difluoromethyl)phosphonic acid] | 0.3 to 3 | 100 to 1000

Source: patent US20250215029A1 (Recludix Pharma, Inc., priority 2022, published 2025)
